Test results as given in patent publication US20210214375A1 (LUNDBECK LA JOLLA RESEARCH CENTER, INC., priority 2017, published 2021).

How the values were obtained:
MGLL = molecular target: T1, MGLL (Mus musculus, UniProt O35678); assay: In vitro competitive activity-based protein profiling, mouse brain proteome; type: biochemical
T1 construct: Brain; from tissue; host or cells: mouse brain proteome
T1 sequence (O35678 1-303): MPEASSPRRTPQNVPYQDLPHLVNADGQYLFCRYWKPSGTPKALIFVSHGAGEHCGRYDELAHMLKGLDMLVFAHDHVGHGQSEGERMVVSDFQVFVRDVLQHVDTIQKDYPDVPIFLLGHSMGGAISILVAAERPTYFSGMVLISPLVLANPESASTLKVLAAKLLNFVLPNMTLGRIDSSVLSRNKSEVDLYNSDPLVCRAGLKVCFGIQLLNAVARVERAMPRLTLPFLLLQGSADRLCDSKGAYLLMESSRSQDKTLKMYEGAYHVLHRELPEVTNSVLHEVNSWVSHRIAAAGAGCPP
Method: [Worded in the source for another species; this species is reported under the same test.] (§1) Proteomes (human prefrontal cortex or cell membrane fractions) (50 μL, 1.0 mg/mL total protein concentration) were preincubated with varying concentrations of inhibitors at 37° C. After 30 min, FP—Rh or HT-01 (1.0 μL, 50 μM in DMSO) was added and the mixture was incubated for another 30 min at room temperature. Reactions were quenched with SDS loading buffer (15 μL-4×) and run on SDS-PAGE.

ABHD6 = molecular target: T2, ABHD6 (Mus musculus, UniProt Q8R2Y0); assay: In vitro competitive activity-based protein profiling, mouse brain proteome, ABHD6; type: biochemical; settings: for IC50: mouse
T2 construct: Brain; from tissue; host or cells: mouse brain proteome
T2 sequence (Q8R2Y0 1-336): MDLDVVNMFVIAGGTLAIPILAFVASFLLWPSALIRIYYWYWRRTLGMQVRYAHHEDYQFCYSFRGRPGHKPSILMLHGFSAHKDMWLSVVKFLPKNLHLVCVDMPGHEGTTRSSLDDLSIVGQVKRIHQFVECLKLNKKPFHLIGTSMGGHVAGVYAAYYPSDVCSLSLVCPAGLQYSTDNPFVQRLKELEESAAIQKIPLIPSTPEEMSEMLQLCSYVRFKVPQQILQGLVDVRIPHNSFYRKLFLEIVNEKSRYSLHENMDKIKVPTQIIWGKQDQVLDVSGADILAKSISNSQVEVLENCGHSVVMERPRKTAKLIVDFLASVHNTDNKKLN
Method: [Worded in the source for another target; this target is reported under the same test.] as §1

CCN1CCCc2cccc(CN3CC4(CCN(C(=O)OC(C(F)(F)F)C(F)(F)F)CC4)C3)c21 [Example 16, 1,1,1,3,3,3-Hexafluoropropan-2-yl 2-((1-ethyl-1,2,3,4-tetrahydroquinolin-8-yl)methyl)-2,7-diazaspiro[3.5]nonane-7-carboxylate] was tested, and the IC50 (MGLL) was under 100 nM and the IC50 (ABHD6) was 100 to 1000 nM.

O=C(OC(C(F)(F)F)C(F)(F)F)N1CCC2(CC1)CN(Cc1ccc(C(F)(F)F)cc1N1CCCCC1)C2 [Example 35] showed an IC50 (MGLL) of under 100 nM and an IC50 (ABHD6) of 100 to 1000 nM.

With O=C(O)C1CCN(c2ccc(CN3CCC4(CC3)CN(C(=O)OC(C(F)(F)F)C(F)(F)F)C4)cc2)CC1 [Example 66, 1-(4-((2-(((1,1,1,3,3,3-Hexafluoropropan-2-yl)oxy)carbonyl)-2,7-diazaspiro[3.5]nonan-7-yl)methyl)phenyl) piperidine-4-carboxylic acid] the “% Inh MGLL Brain (Mouse, μM)” value (MGLL) was “## (## is between 25 and 75%)” and the “% Inh ABHD6 Brain (Mouse, μM)” value (ABHD6; mouse brain proteome) was “### (### is ≥ 75%)”.

CCN1CCCc2cccc(CN3CCC4(CC3)CN(C(=O)OC(C(F)(F)F)C(F)(F)F)C4)c21 [Example 31, 1,1,1,3,3,3-Hexafluoropropan-2-yl 7-((1-ethyl-1,2,3,4-tetrahydroquinolin-8-yl)methyl)-2,7-diazaspiro[3.5]nonane-2-carboxylate] gave an IC50 (MGLL) of over 1000 nM and an IC50 (ABHD6) of 100 to 1000 nM.

O=C(OC(C(F)(F)F)C(F)(F)F)N1CCC2(CC1)CN(Cc1ccc(C(F)(F)F)cc1N1CCOCC1)C2 [Example 36, 1,1,1,3,3,3-Hexafluoropropan-2-yl 2-(2-morpholino-4-(trifluoromethyl)benzyl)-2,7-diazaspiro[3.5]nonane-7-carboxylate] was tested, and the IC50 (MGLL) was under 100 nM and the IC50 (ABHD6) was 100 to 1000 nM.

Molecule O=C(OC(C(F)(F)F)C(F)(F)F)N1CCC2(CC1)CN(Cc1cccc(Oc3ccccc3)c1)C2 [Example 78, 1,1,1,3,3,3-Hexafluoropropan-2-yl 2-(3-phenoxybenzyl)-2,7-diazaspiro[3.5]nonane-7-carboxylate] has an IC50 (MGLL) of under 100 nM and an IC50 (ABHD6) of under 100 nM.

O=C(OC(C(F)(F)F)C(F)(F)F)N1CCC2(CC1)CN(Cc1c(Cl)cccc1N1CCC(F)CC1)C2 [Example 47, 1,1,1,3,3,3-Hexafluoropropan-2-yl 2-(2-chloro-6-(4-fluoropiperidin-1-yl)benzyl)-2,7-diazaspiro[3.5]nonane-7-carboxylate] showed an IC50 (MGLL) of under 100 nM and an IC50 (ABHD6) of under 100 nM.

In the case of CC(=O)N1CC2(CCN(c3ccccc3CN3CCC34CCN(C(=O)OC(C(F)(F)F)C(F)(F)F)CC4)C2)C1 [Example 228, 1,1,1,3,3,3-Hexafluoropropan-2-yl 1-(2-(2-acetyl-2,6-diazaspiro[3.4]octan-6-yl)benzyl)-1,7-diazaspiro[3.5]nonane-7-carboxylate], the IC50 (MGLL) is reported as 100 to 1000 nM and the IC50 (ABHD6) is reported as over 1000 nM.

Molecule O=C(OC(C(F)(F)F)C(F)(F)F)N1CC2(CCN(Cc3c(N4CCCC4)cccc3C(F)(F)F)CC2)C1 [Example 148, 1,1,1,3,3,3-Hexafluoropropan-2-yl 7-(2-(pynrolidin-1-yl)-4-(trifluoromethyl)benzyl)-2,7-diazaspiro[3.5]nonane-2-carboxylate] has an IC50 (MGLL) of 100 to 1000 nM and an IC50 (ABHD6) of 100 to 1000 nM.

O=C(OC(C(F)(F)F)C(F)(F)F)N1CCC2(CC1)CN(Cc1ccc(Cl)cc1N1CCCC1)C2 [Example 34] was tested, and the IC50 (MGLL) was under 100 nM and the IC50 (ABHD6) was 100 to 1000 nM.

O=C(OC(C(F)(F)F)C(F)(F)F)N1CCC2(CC1)CN(Cc1ccc(Cl)cc1N1CCCCC1)C2 [Example 38, 1,1,1,3,3,3-Hexafluoropropan-2-yl 2-(4-chloro-2-(piperidin-1-yl)benzyl)-2,7-diazaspiro[3.5]nonane-7-carboxylate] gave an IC50 (MGLL) of 100 to 1000 nM and an IC50 (ABHD6) of 100 to 1000 nM.

Work on Cc1cccc(CN2CC3(CCN(C(=O)OC(C(F)(F)F)C(F)(F)F)CC3)C2)c1 [Example 86, 1,1,1,3,3,3-Hexafluoropropan-2-yl 2-(3-methylbenzyl)-2,7-diazaspiro[3.5]nonane-7-carboxylate] yielded an IC50 (MGLL) of under 100 nM and an IC50 (ABHD6) of under 100 nM.
